This passage reports IC50 results from patent US20220142995A1, “DUAL ATM AND DNA-PK INHIBITORS FOR USE IN ANTI-TUMOR THERAPY” (XRAD Therapeutics, Inc., priority 2019, published 2022).

For one assay, the target named is T1, DNA-PK (Homo sapiens, UniProt P78527).
T1 construct: purchased Invitrogen PR9107A
Put plainly: DNA-PK enzyme-linked immunosorbent assay. It is filed as biochemical. The following applies: ATP 20 μM, GST-p53 substrate. As for the experimental part:
DNA-PK Enzyme-Linked Immunosorbent Assay:
On day one, a 96-well plate (ThermoFisher, Cat #: 442404) was coated with GST-p53 (1-101) peptide (purified by Pharmaron, BCS department) by diluting 3 μg of GST-p53 in each well with 0.1 M Na2CO3/NaHCO3 (pH 9.6). The plate was incubated overnight at 4° C. On the second day, the coating buffer was removed, and the plate was washed twice with PBST (1×PBS containing 0.1% Tween-20). The DNA-PK enzyme solution (Invitrogen, #PR9107A; the final DNA-PK concentration: 0.1 μg/mL) was then added. The compounds were serially diluted to the final maximal concentration of 100 nM (3 fold series dilution, a total of 10 doses), and an ATP solution (the final ATP concentration: 20 μM) was added to the plate. Incubate the plate at 25° C. for 1 hour. The plate was washed three times with PBST (1×PBS containing 0.1% Tween-20) and blocked with a solution of PBST and 1% BSA at 4° C. overnight. The third day, the plate was washed four times with PBST (1×PBS containing 0.1% Tween-20). Anti-phospho-p53 primary antibody (cell signaling Technology, #9286, Phospho-p53 (Ser15) (16G8) Mouse mAb) (1/1000) was added to each well. The plate was sealed, incubated 1 h at 37° C., and washed four times with PBST (1×PBS containing 0.1% Tween-20). An HRP-linked secondary antibody (Cell signaling Technology, #7076, Anti-mouse IgG, HRP-linked Antibody) (1/1000) (100 μL) was added to each well. The plate was sealed with tape, incubated 30 min at 37° C., and washed four times with PBST (1×PBS containing 0.1% Tween-20). At this time, 100 μL of TMB (Cell signaling Technology, #7004) substrate were added to each well. The plate was sealed with tape and incubated the plate 10 min at 37° C. Stop solution (Cell signaling Technology, #7002) (100 μL) was added to each well, and the plate was subjected to the absorption detection at 450 nm.

Another assay concerns the target T2, mTOR (Homo sapiens, UniProt P42345).
T2 construct: purchased ThermoFisher PR8683B
Put plainly: mTOR biochemical assay (LanthaScreen TR-FRET). The following applies: ATP 3 μM, maximal concentration 100 nM. As for the experimental part:
mTOR Kinase reactions were performed in a 10 μL volume in low-volume 384-well plates. Typically, PerkinElmer model 6008260 plates were used. The composition of the 1× kinase reaction buffer was: 50 mM HEPES pH 7.5, 0.01% Tween 20, 1 mM EGTA, 10 mM MnCl2, and 2 mM DTT. The solution of mTOR enzyme (ThermoFisher, #PR8683B; the final mTOR concentration: 0.5 μg/mL) was added, and the compounds were serially diluted to the final maximal concentration of 100 nM (3 fold series dilution, a total of 10 doses). GFP-4E-BP1 (the final concentration: 0.4 μM) and the ATP solution (the final ATP concentration: 3 μM) were added to the 384-well plate. The plate was incubated at 25° C. for 1 hour, and 10 μL of the EDTA solution (20 mM) and Tb-labeled anti-p4E-BP1 antibody (4 nM) in TR-FRET dilution buffer were added to each well. The plate was sealed, incubated 30 min at 25° C., and read on a plate reader configured for LanthaScreen™ TRFRET.

The target of the next assay is T3, PI3Kα (Homo sapiens, UniProt P42336).
T3 construct: purchased ThermoFisher PV4788
T3 sequence (P42336 whole entry): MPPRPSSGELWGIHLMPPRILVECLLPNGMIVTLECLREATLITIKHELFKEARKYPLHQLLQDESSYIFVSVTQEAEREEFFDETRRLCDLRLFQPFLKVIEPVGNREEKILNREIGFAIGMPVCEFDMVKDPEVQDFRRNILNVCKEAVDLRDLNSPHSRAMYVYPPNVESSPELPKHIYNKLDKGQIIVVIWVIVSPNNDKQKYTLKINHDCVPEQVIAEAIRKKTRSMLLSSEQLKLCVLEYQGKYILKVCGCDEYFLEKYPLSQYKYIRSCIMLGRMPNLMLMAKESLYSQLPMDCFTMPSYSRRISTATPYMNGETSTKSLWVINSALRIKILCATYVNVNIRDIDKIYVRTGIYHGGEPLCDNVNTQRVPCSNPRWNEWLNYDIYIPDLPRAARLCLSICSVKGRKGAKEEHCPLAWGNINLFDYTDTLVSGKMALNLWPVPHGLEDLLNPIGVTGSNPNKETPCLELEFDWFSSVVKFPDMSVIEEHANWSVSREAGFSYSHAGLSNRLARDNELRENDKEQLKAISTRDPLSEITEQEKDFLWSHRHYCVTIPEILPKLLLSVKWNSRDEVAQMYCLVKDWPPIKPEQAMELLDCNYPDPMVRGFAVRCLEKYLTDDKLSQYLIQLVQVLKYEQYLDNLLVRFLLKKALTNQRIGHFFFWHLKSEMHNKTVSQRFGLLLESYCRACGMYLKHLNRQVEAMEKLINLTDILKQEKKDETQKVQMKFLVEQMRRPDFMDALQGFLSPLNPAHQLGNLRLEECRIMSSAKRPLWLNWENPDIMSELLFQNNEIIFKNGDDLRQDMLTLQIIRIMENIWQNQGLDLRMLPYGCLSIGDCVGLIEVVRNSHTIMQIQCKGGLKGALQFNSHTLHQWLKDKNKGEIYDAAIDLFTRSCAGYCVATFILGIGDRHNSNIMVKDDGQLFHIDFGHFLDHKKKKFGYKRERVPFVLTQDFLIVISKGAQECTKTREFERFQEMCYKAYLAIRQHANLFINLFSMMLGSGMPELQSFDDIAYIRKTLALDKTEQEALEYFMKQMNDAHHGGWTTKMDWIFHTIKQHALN
T3 sequence (P27986 whole entry partner): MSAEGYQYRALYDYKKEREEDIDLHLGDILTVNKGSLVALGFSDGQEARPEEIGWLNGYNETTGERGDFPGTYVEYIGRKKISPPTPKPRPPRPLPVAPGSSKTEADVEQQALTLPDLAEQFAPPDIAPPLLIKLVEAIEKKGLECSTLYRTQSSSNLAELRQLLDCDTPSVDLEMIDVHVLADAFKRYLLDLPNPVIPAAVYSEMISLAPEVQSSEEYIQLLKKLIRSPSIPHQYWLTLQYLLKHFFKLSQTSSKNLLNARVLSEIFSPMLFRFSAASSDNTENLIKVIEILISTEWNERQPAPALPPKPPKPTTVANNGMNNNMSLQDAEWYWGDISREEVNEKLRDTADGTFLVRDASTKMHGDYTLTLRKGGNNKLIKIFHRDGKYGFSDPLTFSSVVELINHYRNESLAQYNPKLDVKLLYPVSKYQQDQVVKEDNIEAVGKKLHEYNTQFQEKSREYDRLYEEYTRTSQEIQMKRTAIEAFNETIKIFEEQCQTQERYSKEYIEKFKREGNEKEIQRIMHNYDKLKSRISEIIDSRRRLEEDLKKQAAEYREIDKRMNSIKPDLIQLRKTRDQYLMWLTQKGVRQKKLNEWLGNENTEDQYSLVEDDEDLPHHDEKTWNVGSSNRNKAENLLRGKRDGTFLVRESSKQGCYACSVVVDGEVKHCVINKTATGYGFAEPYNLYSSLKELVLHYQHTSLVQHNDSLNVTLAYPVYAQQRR
Put plainly: PI3Kα biochemical assay (ADP-Glo). The following applies: first value of PI3K-α/δ cell; ATP 10 μM. As for the experimental part: (§1) PI3Kα and PI3Kδ Biochemical Assay:
(§2) PI3K[…] and PI3K[…] Kinase reactions were performed in a 5 μL volume in low-volume 384-well plates. Typically, PerkinElmer model 6008280 plates were used. The 1× kinase reaction buffer consisted of 50 mM HEPES pH 7.5, 3 mM MgCl2, 0.03% CHAPS, 1 mM EGTA, 100 mM NaCl, and 2 mM DTT. PI3K[…] (ThermoFisher, #PV4788; the final PI3K[…] concentration: 120 ng/mL) or PI3K[…] enzyme solution (ThermoFisher, #PV6451; the final PI3K[…] concentration: 250 ng/mL) was added to the plate, compounds were serially diluted to the final maximal concentration of 100 nM (3 fold series dilution, a total of 10 doses), and the PIP2:3PS (the final concentration: 10 µg/mL) and ATP solution (the final ATP concentration: 10 μM) was added to the 384-well plate. The plate was incubated at 25° C. for 1 hour. ADP-Glo reagent buffer (5 μL) was added to each well. The plate was sealed and incubated for 40 min at 25° C. ADP-Glo detection buffer (10 μL) was added to each well, and the plate was incubated for 40 min at 25° C. and read on a plate reader configured for Luminescence.

Another assay deals with T4, PI3Kδ (Homo sapiens, UniProt O00329).
T4 construct: purchased ThermoFisher PV6451
T4 sequence (O00329 whole entry): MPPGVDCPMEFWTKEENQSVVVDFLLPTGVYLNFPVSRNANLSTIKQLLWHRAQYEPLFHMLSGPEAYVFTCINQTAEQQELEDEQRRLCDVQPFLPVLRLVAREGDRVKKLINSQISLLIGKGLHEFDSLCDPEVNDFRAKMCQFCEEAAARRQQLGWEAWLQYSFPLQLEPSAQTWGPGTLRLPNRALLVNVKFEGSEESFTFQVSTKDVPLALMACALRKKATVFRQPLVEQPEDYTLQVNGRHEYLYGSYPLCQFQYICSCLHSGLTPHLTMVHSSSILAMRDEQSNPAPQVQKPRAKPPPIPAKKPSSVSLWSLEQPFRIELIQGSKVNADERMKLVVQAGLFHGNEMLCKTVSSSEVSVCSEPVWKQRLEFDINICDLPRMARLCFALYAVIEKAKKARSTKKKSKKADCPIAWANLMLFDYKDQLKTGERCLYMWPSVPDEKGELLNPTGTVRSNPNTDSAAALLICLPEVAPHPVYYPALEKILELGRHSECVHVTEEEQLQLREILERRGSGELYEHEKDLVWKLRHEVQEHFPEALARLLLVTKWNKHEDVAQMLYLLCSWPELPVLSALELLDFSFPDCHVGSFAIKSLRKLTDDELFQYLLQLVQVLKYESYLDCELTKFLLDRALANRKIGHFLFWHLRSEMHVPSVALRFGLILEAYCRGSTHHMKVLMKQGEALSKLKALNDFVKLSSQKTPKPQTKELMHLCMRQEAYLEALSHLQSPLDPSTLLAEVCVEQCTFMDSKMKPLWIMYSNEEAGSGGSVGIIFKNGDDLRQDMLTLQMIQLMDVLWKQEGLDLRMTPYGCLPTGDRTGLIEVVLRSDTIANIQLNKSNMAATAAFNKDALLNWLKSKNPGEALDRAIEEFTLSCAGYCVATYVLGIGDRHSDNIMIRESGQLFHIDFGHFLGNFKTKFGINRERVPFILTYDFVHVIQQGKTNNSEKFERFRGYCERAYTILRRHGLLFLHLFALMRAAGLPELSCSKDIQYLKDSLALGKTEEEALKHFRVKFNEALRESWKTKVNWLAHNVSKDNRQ
T4 sequence (P27986 whole entry partner): as the sequence (P27986 whole entry partner) above
Put plainly: PI3Kδ biochemical assay (ADP-Glo). As to conditions: second value of PI3K-α/δ cell; ATP 10 μM. As for the experimental part: as §1, §2

Several values for one entry are separate records, joined by “and”; a condition that tells them apart may be missing. Equal entries are not always repeated. Structures can show the parent of a compound that is named as a salt.

T2 sequence (P42345 1360-2549 limits assumed): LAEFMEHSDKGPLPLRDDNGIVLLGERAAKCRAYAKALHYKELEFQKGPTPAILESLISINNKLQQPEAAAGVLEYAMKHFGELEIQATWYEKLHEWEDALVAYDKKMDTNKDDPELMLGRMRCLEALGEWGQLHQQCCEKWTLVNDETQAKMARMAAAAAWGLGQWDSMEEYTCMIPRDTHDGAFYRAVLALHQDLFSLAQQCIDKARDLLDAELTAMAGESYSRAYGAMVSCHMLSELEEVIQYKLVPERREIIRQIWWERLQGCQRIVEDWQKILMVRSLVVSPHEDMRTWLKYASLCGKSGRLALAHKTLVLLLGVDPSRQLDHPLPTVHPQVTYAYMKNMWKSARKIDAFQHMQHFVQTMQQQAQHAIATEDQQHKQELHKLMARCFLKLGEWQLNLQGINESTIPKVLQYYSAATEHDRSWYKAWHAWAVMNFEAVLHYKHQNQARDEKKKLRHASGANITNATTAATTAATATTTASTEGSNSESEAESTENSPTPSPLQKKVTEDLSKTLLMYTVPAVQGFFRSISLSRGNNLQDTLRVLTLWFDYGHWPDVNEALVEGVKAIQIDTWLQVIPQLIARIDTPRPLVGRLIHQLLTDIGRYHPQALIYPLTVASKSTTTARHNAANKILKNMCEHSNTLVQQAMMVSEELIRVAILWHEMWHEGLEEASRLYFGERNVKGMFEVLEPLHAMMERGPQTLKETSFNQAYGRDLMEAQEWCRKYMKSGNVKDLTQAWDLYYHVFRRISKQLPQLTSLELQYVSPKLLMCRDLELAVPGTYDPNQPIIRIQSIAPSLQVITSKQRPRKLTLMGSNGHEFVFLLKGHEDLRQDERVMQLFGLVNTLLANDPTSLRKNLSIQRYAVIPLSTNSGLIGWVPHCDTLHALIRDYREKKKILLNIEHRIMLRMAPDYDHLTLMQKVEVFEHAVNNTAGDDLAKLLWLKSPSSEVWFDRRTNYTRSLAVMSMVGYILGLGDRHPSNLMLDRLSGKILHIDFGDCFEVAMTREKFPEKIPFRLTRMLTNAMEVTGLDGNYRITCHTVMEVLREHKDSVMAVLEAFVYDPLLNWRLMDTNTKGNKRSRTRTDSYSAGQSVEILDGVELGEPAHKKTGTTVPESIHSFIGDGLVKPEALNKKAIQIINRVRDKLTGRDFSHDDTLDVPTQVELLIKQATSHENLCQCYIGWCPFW

For `CC(C)NCCOc1ncc(-c2cc3c(cc2F)ncc2c3[C@]3(C[C@@H](OCc4ccccc4)C3)C(=O)N2C)cc1NS(C)(=O)=O` [Compound 567, trans-N-(5-(3-(Benzyloxy)-7′-fluoro-3′-methyl-2′-oxo-2′,3′-dihydrospiro[cyclobutane-1,1′-pyrrolo[2,3-c]quinolin]-8′-yl)-2-(2-(isopropylamino)ethoxy)pyridin-3-yl)methanesulfonamide], the IC50 was 2.7 nM against DNA-PK, above 100 nM against mTOR, above 100 nM against PI3Kα and above 100 nM on PI3Kδ.

With `CC[C@H]1C[C@@]2(C1)C(=O)N(C)c1cnc3cc(F)c(-c4cnc(OCCNC(C)C)c(NS(C)(=O)=O)c4)cc3c12` [Compound 566, trans-N-(5-(3-Ethyl-7′-fluoro-3′-methyl-2′-oxo-2′,3′-dihydrospiro[cyclobutane-1,1′-pyrrolo[2,3-c]quinolin]-8′-yl)-2-(2-(isopropylamino)ethoxy)pyridin-3-yl)methanesulfonamide], the IC50 on DNA-PK is 1.03 nM; against mTOR, above 100 nM; at PI3Kα it was above 100 nM; against PI3Kδ it was 14 nM.

As to `CC(C)NCCOc1ncc(-c2cc3c(cc2F)ncc2c3[C@]3(C[C@H](OCc4ccccc4)C3)C(=O)N2C)cc1NS(C)(=O)=O` [Compound 572, cis-N-(5-(3-(Benzyloxy)-7′-fluoro-3′-methyl-2′-oxo-2′,3′-dihydrospiro[cyclobutane-1,1′-pyrrolo[2,3-c]quinolin]-8′-yl)-2-(2-(isopropylamino)ethoxy)pyridin-3-yl)methanesulfonamide], the IC50 on DNA-PK is 0.32 nM; against mTOR it was above 100 nM; on PI3Kα it was 23 nM; at PI3Kδ, 15 nM.

For `CC(C)NCCOc1ncc(-c2cc3c4c(cnc3cc2F)N(C)C(=O)C42CN(C(C)C)C2)cc1NS(C)(=O)=O` [Compound 571, N-(5-(7′-Fluoro-1-isopropyl-3′-methyl-2′-oxo-2′,3′-dihydrospiro[azetidine-3,1′-pyrrolo[2,3-c]quinolin]-8′-yl)-2-(2-(isopropylamino)ethoxy)pyridin-3-yl)methanesulfonamide], the IC50 is 0.67 nM and 0.94 nM on DNA-PK; above 100 nM at mTOR; 62 nM at PI3Kα.

Consider `CC(C)NCCOc1ncc(-c2cc3c4c(cnc3cc2F)N(C)C(=O)C42CCC2)cc1NS(=O)(=O)C(C)C` [Compound 568, N-(5-(7′-Fluoro-3′-methyl-2′-oxo-2′,3′-dihydrospiro[cyclobutane-1,1′-pyrrolo[2,3-c]quinolin]-8′-yl)-2-(2-(isopropylamino)ethoxy)pyridin-3-yl)propane-2-sulfonamide], for which the IC50 against DNA-PK was 0.79 nM; against mTOR, above 100 nM; against PI3Kα it was 18 nM; against PI3Kδ, 54 nM.

Regarding `CC(C)NCCOc1ncc(-c2cc3c4c(cnc3cc2F)N(C)C(=O)C42CCC2)cc1NS(C)(=O)=O` [Compound 569, N-(5-(7′-Fluoro-3′-methyl-2′-oxo-2′,3′-dihydrospiro[cyclobutane-1,1′-pyrrolo[2,3-c]quinolin]-8′-yl)-2-(2-(isopropylamino)ethoxy)pyridin-3-yl)methanesulfonamide], the half-maximal inhibitory concentration (IC50) came out at 0.63 nM against DNA-PK, 16 nM on PI3Kα and 73 nM at PI3Kδ.

Consider `CCS(=O)(=O)Nc1cc(-c2cc3c4c(cnc3cc2F)N(C)C(=O)C42CCC2)cnc1OCCNC(C)C` [Compound 570, N-(5-(7′-Fluoro-3′-methyl-2′-oxo-2′,3′-dihydrospiro[cyclobutane-1,1′-pyrrolo[2,3-c]quinolin]-8′-yl)-2-(2-(isopropylamino)ethoxy)pyridin-3-yl)ethanesulfonamide], for which the IC50 against DNA-PK was 0.63 nM; at mTOR, above 100 nM; on PI3Kα, 21 nM; on PI3Kδ, 55 nM.

Regarding `CN1C(=O)C2(CCC2)c2c1cnc1ccc(-c3cnc(N4CC(N(C)C)C4)c(NS(C)(=O)=O)c3)cc21` [Compound 574, N-(2-(3-(Dimethylamino)azetidin-1-yl)-5-(3′-methyl-2′-oxo-2′,3′-dihydrospiro[cyclobutane-1,1′-pyrrolo[2,3-c]quinolin]-8′-yl)pyridin-3-yl)methanesulfonamide hydrochloride], the IC50 stood at 1.03 nM against DNA-PK, 19.9 nM on mTOR, 0.12 nM against PI3Kα and 3 nM against PI3Kδ.

`CC[C@H]1C[C@]2(C1)C(=O)N(C)c1cnc3cc(F)c(-c4cnc(OCCNC(C)C)c(NS(C)(=O)=O)c4)cc3c12` [Compound 573, cis-N-(5-(3-Ethyl-7′-fluoro-3′-methyl-2′-oxo-2′,3′-dihydrospiro[cyclobutane-1,1′-pyrrolo[2,3-c]quinolin]-8′-yl)-2-(2-(isopropylamino)ethoxy)pyridin-3-yl)methanesulfonamide]: the 50% inhibitory concentration (IC50) was 0.3 nM on DNA-PK, above 100 nM at mTOR, 18 nM against PI3Kα and 12 nM against PI3Kδ.
